Earlier results as cited in PMC8307506, “Identification of Dihydromyricetin and Metabolites in Serum and Brain Associated with Acute Anti-Ethanol Intoxicating Effects in Mice” (International Journal of Molecular Sciences, 2021).

Set-up: method as in PMID 28534405
Details: Sprague Dawley rats, 100 mg/kg PO; cited from earlier work

O=C1c2c(O)cc(O)cc2O[C@H](c2cc(O)c(O)c(O)c2)[C@H]1O [DHM, Dihydromyricetin]
time DHM detected in brain tissue post administration: up to 12 h
